pIC50: −log10 of the molar value. “And” between values parts separate entries of the source, which are not always exact repeats. Equal entries are not always repeated. Structures can show the parent of a compound that is named as a salt. Where two headings read alike, the source gives them in different places.
Assays:
[1] = test system: TNF-alpha; assay: Microglial TNF-alpha secretion, LPS stimulated; type: cell-based; conditions: for TNFa: percentage of TNFa vs LPS stimulated controls, Table 2; for TNF-a.: Table 3, microglial inflammation, presented for comparison
Protocol: The efficacy of these compounds to reduce toxicity are assessed, as reflected by age-dependent paralysis, in an Abeta transgenic C. elegans model of Alzheimer's Disease. Because microglial inflammation, especially the cytokine TNF-alpha, are implicated in driving the pathophysiology of Alzheimer's Disease, […], was also assessed.

[2] = test system: microglial cells; assay: MTT viability of microglial cells (microglial toxicity); type: cell-based
[3] = test system: SARS-CoV-2; assay: microbe, parasite or virus in culture; type: cell-based
[4] = test system: Abeta transgenic C. elegans; assay: Paralysis in Abeta transgenic C. elegans (Abeta toxicity); type: in vivo; conditions: for paralysis: Table 3, Abeta toxicity in C. elegans, one to six unexplained values per cell
[5] = test system: mouse model of intracerebral hemorrhage; assay: Mouse model of intracerebral hemorrhage, motor and cognitive function; type: in vivo; conditions: for cognitive function: alternation in a Y-maze; for cognitive function / motor function: compared to DMSO, normalized to pre-ICH function; for motor function: rotarod
Protocol: FIG. 1. […] Motor function was assessed using rotarod and cognitive was assessed by alternation in a Y-maze. All data were normalized to data pre-ICH function.
Motor function was assessed using rotarod and cognitive was assessed by alternation in a Y-maze. All data were normalized to data pre-ICH function.

[6] = test system: C. elegans; assay: Lifespan in C. elegans; type: in vivo
[7] = test system: Vero cells; assay: Viability of Vero cells (CC50); type: cell-based; conditions: concentration that reduces viability of Vero cells
[8] = Viability of Vero cells (CC50); type: cell-based; conditions: African green monkey; concentration that reduces viability of Vero cells
[9] = test system: mouse double-transgenic (A-beta/presenilin) model of AD; conditions: treatment between 14 and 15 months; Govindarajan et al. 2011; cited from earlier work
[10] = test system: Abeta transgenic C. elegans; conditions: Zhang, Poplawski et al. 2009; cited from earlier work
[11] = Plasma and brain concentrations after IV or oral administration in mice; type: in vivo; conditions: male C57BL/6 mice
Protocol: FIG. 2. Plasma and brain concentrations of TC084-110 over 8 h following a single IV injection (A) at 1 mg/kg or oral administration (B) at 10 mg/kg in male C57BL/6 mice. […] Plasma and brain concentrations at each time point represent the mean+/−SD from 3 mice.

[12] = percentage of MTT viability compared to unstimulated DMSO control cells, Table 2
[13] = concentration that inhibits replication of SARS-CoV-2 in Vero cells by 50%, read-out: IC50
[14] = Table 3, net protective effects in C. elegans, class letter
[15] = Table 3, microglial toxicity, presented for comparison
[16] = Severe acute respiratory syndrome coronavirus 2, concentration that inhibits replication of SARS-CoV-2 in Vero cells by 50%, read-out: IC50

Compound	TNFa [1] [%]	MTT [2, 12] [%]	lifespan in C. elegans [6]	Lifespan ([6]; Table 2, class letters I, D, N)	other results
COc1ccc2c(c1)N(C(C)=O)c1ccccc1[S+]2[O-] (centres unmarked) [TC84-37, 1-(2-methoxy-5-oxido-10H-phenothiazin-10-yl)ethan-1-one]	90.49	140.38			
Chlorprothixene [reference compound]					pIC50 [3, 13]: 6.00; paralysis [4]: 64.31% and 47.65%; TNF-a. [1]: 69.84%; cognitive function [5]: preserve; motor function [5]: preserve; Lifespan [6, 14]: I 0.0493; MTT [2, 15]: 122.40%; CC50 [7]: 3.5 µM
CC(=O)N1c2ccccc2Sc2ccc(C(F)(F)F)cc21 [TC84-32, 1-(2-(trifluoromethyl)-10H-phenothiazin-10-yl)ethan-1-one]	90.74	141.59			
Cc1ccc2c(c1)N(CCC1CCCCN1C)c1cc(C(F)(F)F)ccc1S2 (centres unmarked) [TC96-20, 2-methyl-10-(2-(1-methylpiperidin-2-yl)ethyl)-8-(trifluoromethyl)-10H-phenothiazine]	49.67	51.90			Abeta toxicity [4]: reduced Abeta toxicity; microglial TNF-alpha secretion [1]: significantly reduced
CC(=O)N(C)CCCN1c2ccccc2Sc2ccc(C(F)(F)F)cc21 [TC84-162, N-methyl-N-(3-(2-(trifluoromethyl)-10H-phenothiazin-10-yl)propyl)acetamide]	94.58	121.08			Abeta toxicity [4]: reduced Abeta toxicity; microglial TNF-alpha secretion [1]: significantly reduced
CC(=O)N1c2ccccc2[S+]([O-])c2ccc(Cl)cc21 (centres unmarked) [TC84-39, 1-(2-chloro-5-oxido-10H-phenothiazin-10-yl)ethan-1-one]	90.88	134.67	increased lifespan	I	
CC(=O)c1ccc2c(c1)N(C(C)=O)c1ccccc1[S+]2[O-] (centres unmarked) [TC84-20, 1,1′-(5-oxido-10H-phenothiazine-2,10-diyl)bis(ethan-1-one)]	95.41	158.76	increased lifespan	I	
CC(=O)c1ccc2c(c1)N(C(C)=O)c1ccccc1S2 [TC84-13, 1,1′-(10H-phenothiazine-2,10-diyl)bis(ethan-1-one)]	95.36	154.03	increased lifespan	I	
CC(=O)c1ccc2c(c1)N(CCCN(C)C(C)=O)c1ccccc1S2 [TC84-161, N-(3-(2-acetyl-10H-phenothiazin-10-yl)propyl)-N-methylacetamide]	89.27	106.15	increased lifespan	I	
COc1ccc2c(c1)N(C(C)=O)c1ccccc1S2 [TC84-31, 1-(2-methoxy-10H-phenothiazin-10-yl)ethan-1-one]	92.28	153.72			
Cc1cc2c(cc1C)N(CCCN(C)C)c1ccccc1S2 [TC84-124, 3-(2,3-dimethyl-10H-phenothiazin-10-yl)-N,N-dimethylpropan-1-amine]	56.73	82.48	increased lifespan	I	SARS-CoV-2 replication [3]: reduced SARS-CoV-2 replication; pIC50 [3, 16]: 5.77; Abeta toxicity [4]: reduced Abeta toxicity; microglial TNF-alpha secretion [1]: significantly reduced; TNF-a. [1]: 56.73%; Lifespan [6, 14]: I; MTT [2, 15]: 82.48%; CC50 [8]: 6.5 µM
CN1CCCCC1CCN1c2ccccc2Sc2cc(C(F)(F)F)ccc21 (centres unmarked) [TC84-144, 10-(2-(1-methylpiperidin-2-yl)ethyl)-3-(trifluoromethyl)-10H-phenothiazine]	45.34	41.27	increased lifespan	I	
CCCC(=O)[O-].[Na+] [sodium butyrate]					A-beta plaques [9]: no changes in A-beta plaques; acetylation of H3K14, H4K5, and H4K16 [9]: reduced acetylation; cognitive impairments [9]: reversed cognitive impairments; Abeta toxicity in vivo in a C. elegans model of AD [10]: significantly reduces Abeta toxicity
Cc1cc2c(cc1C)N(CCC1CCCCN1C)c1ccccc1S2 (centres unmarked) [TC84-125, 2,3-dimethyl-10-(2-(1-methylpiperidin-2-yl)ethyl)-10H-phenothiazine]	41.37	42.77	increased lifespan	I	Abeta toxicity [4]: reduced Abeta toxicity; microglial TNF-alpha secretion [1]: significantly reduced
Chlorpromazine [reference compound]					pIC50 [3, 13]: 5.36; paralysis [4]: 0%; TNF-a. [1]: 63.83%; Lifespan [6, 14]: I; MTT [2, 15]: 79.38%; CC50 [7]: 6.7 µM
COc1ccc2c(c1)N(CCCN(C)C(C)=O)c1ccccc1S2 [TC84-163, N-(3-(2-methoxy-10H-phenothiazin-10-yl)propyl)-N-methylacetamide]	99.98	108.79	increased lifespan	I	
CN(C)CCCN1c2ccccc2Sc2ccc(C(F)(F)F)cc21 [Triflupromazine Hydrochloride]					CC50 [8]: 7 µM
COc1ccc2c(c1)N(CCC1CCCCN1C(C)=O)c1ccccc1S2 (centres unmarked) [TC96-32, 1-(2-(2-(2-methoxy-10H-phenothiazin-10-yl)ethyl)piperidin-1-yl)ethan-1-one]	78.98	106.92			
CCC(CC)COC(=O)[C@H](C)N[P@](=O)(OC[C@H]1O[C@@](C#N)(c2ccc3c(N)ncnn23)[C@H](O)[C@@H]1O)Oc1ccccc1 [Remdesivir, reference compound]					pIC50 ([3]; Severe acute respiratory syndrome coronavirus 2, Vero): 5.92; CC50 [8]: > 20 µM
CC(=O)N1c2ccccc2[S+]([O-])c2ccc(C(F)(F)F)cc21 (centres unmarked) [TC84-38, 1-(5-oxido-2-(trifluoromethyl)-10H-phenothiazin-10-yl)ethan-1-one]	97.23	149.90	increased lifespan	I	
CN1CCCCC1CCN1c2ccccc2Sc2ccc(F)cc21 (centres unmarked) [TC84-110, 2-fluoro-10-(2-(1-methylpiperidin-2-yl)ethyl)-10H-phenothiazine]	58.49	91.99	increased lifespan	I	SARS-CoV-2 replication [3]: reduced SARS-CoV-2 replication; pIC50 [3, 16]: 5.92; oral availability ([11]; oral administration at 10 mg/kg): orally available; brain/plasma ratio ([11]; single IV 1 mg/kg or oral 10 mg/kg, over 8 h): very high; Abeta toxicity [4]: reduced Abeta toxicity; microglial TNF-alpha secretion [1]: significantly reduced; TNF-a. [1]: 58.49%; protection to maintain open field behavior and cognitive impairments ([5]; administered after the lesion was produced): significantly protective; cognitive function [5]: preserve; off-target effects such as sedation ([5]; mouse): no discernable off-target effects; motor function [5]: preserve; Lifespan [6, 14]: I; MTT [2, 15]: 91.99%; CC50 [8]: 8.1 µM

Source: patent US20240025868A1, “PHENOTHIAZINE COMPOUNDS FOR THE TREATMENT OF ALZHEIMER'S DISEASE AND OTHER AGE-RELATED AND NEUROLOGICAL DISEASES” (Icahn School of Medicine at Mount Sinai, priority 2020, published 2024)
